{"source": "PubChem BioAssay AID1259407", "about": "(Chemical Carcinogenesis Research Information System (CCRIS), 2018)", "test_system": "CCRIS mutagenicity, Ames/micronucleus/aberration tests", "assay": "CCRIS mutagenicity studies", "key": {"[1]": {"details": "Test System: AMES SALMONELLA TYPHIMURIUM, Strain/Indicator: TA98, Metabolic Activation: NONE, Method: PREINCUBATION"}, "[2]": {"details": "Test System: AMES SALMONELLA TYPHIMURIUM, Strain/Indicator: TA100, Metabolic Activation: NONE, Method: PREINCUBATION"}, "[3]": {"details": "Test System: AMES SALMONELLA TYPHIMURIUM, Strain/Indicator: TA1535, Metabolic Activation: NONE, Method: PREINCUBATION"}, "[4]": {"details": "Test System: AMES SALMONELLA TYPHIMURIUM, Strain/Indicator: TA100, Metabolic Activation: NONE, Method: STANDARD PLATE"}}, "note": "Activity calls are given as the source filed them. The rule behind the calls is not given here."}
{"smiles": "O=C1CCCc2cc([N+](=O)[O-])c3ccccc3c21", "values": [{"measurement": "mutagenic call", "setting": "Test System: AMES SALMONELLA TYPHIMURIUM, Strain/Indicator: TA98-1,8-DNP6, Metabolic Activation: NONE", "value": "inactive; negative"}, {"measurement": "mutagenic call", "setting": "Test System: AMES SALMONELLA TYPHIMURIUM, Strain/Indicator: TA98-1,8-DNP6, Metabolic Activation: S-9", "value": "inactive; negative"}, {"measurement": "mutagenic call", "setting": "Test System: AMES SALMONELLA TYPHIMURIUM, Strain/Indicator: TA98, Metabolic Activation: NONE", "value": "active; positive"}, {"measurement": "mutagenic call", "setting": "Test System: AMES SALMONELLA TYPHIMURIUM, Strain/Indicator: TA98, Metabolic Activation: S-9", "value": "active; positive"}, {"measurement": "mutagenic call", "setting": "Test System: AMES SALMONELLA TYPHIMURIUM, Strain/Indicator: TA98NR, Metabolic Activation: NONE", "value": "inactive; negative"}, {"measurement": "mutagenic call", "setting": "Test System: AMES SALMONELLA TYPHIMURIUM, Strain/Indicator: TA98NR, Metabolic Activation: S-9", "value": "inactive; negative"}, {"measurement": "mutagenic call", "setting": "Test System: AMES SALMONELLA TYPHIMURIUM, Strain/Indicator: TA100, Metabolic Activation: NONE", "value": "active; positive"}, {"measurement": "mutagenic call", "setting": "Test System: AMES SALMONELLA TYPHIMURIUM, Strain/Indicator: TA100, Metabolic Activation: S-9", "value": "active; positive"}, {"measurement": "mutagenic call", "setting": "Test System: AMES SALMONELLA TYPHIMURIUM, Strain/Indicator: TA100NR, Metabolic Activation: NONE", "value": "active; positive"}, {"measurement": "mutagenic call", "setting": "Test System: AMES SALMONELLA TYPHIMURIUM, Strain/Indicator: TA100NR, Metabolic Activation: S-9", "value": "active; positive"}]}
{"smiles": "Cc1cccc(O)c1C", "values": [{"measurement": "mutagenic call", "setting": "[1]", "value": "inactive; negative"}, {"measurement": "mutagenic call", "setting": "Test System: AMES SALMONELLA TYPHIMURIUM, Strain/Indicator: TA98, Metabolic Activation: RAT LIVER S-9, PHENOBARBITAL AND BETA-NAPHTHOFLAVONE, Method: PREINCUBATION", "value": "inactive; negative"}, {"measurement": "mutagenic call", "setting": "[2]", "value": "inactive; negative"}, {"measurement": "mutagenic call", "setting": "Test System: AMES SALMONELLA TYPHIMURIUM, Strain/Indicator: TA100, Metabolic Activation: RAT LIVER S-9, PHENOBARBITAL AND BETA-NAPHTHOFLAVONE, Method: PREINCUBATION", "value": "inactive; negative"}, {"measurement": "mutagenic call", "setting": "[3]", "value": "inactive; negative"}, {"measurement": "mutagenic call", "setting": "Test System: AMES SALMONELLA TYPHIMURIUM, Strain/Indicator: TA1535, Metabolic Activation: RAT LIVER S-9, PHENOBARBITAL AND BETA-NAPHTHOFLAVONE, Method: PREINCUBATION", "value": "inactive; negative"}, {"measurement": "mutagenic call", "setting": "Test System: AMES SALMONELLA TYPHIMURIUM, Strain/Indicator: TA1537, Metabolic Activation: NONE, Method: PREINCUBATION", "value": "inactive; negative"}, {"measurement": "mutagenic call", "setting": "Test System: AMES SALMONELLA TYPHIMURIUM, Strain/Indicator: TA1537, Metabolic Activation: RAT LIVER S-9, PHENOBARBITAL AND BETA-NAPHTHOFLAVONE, Method: PREINCUBATION", "value": "inactive; negative"}, {"measurement": "mutagenic call", "setting": "Test System: AMES SALMONELLA TYPHIMURIUM, Strain/Indicator: TA1538, Metabolic Activation: NONE, Method: PREINCUBATION", "value": "inactive; negative"}, {"measurement": "mutagenic call", "setting": "Test System: AMES SALMONELLA TYPHIMURIUM, Strain/Indicator: TA1538, Metabolic Activation: RAT LIVER S-9, PHENOBARBITAL AND BETA-NAPHTHOFLAVONE, Method: PREINCUBATION", "value": "inactive; negative"}, {"measurement": "mutagenic call", "setting": "Test System: E.COLI, Strain/Indicator: WP2UVRA, Metabolic Activation: NONE, Method: PREINCUBATION", "value": "inactive; negative"}, {"measurement": "mutagenic call", "setting": "Test System: E.COLI, Strain/Indicator: WP2UVRA, Metabolic Activation: RAT LIVER S-9, PHENOBARBITAL AND BETA-NAPHTHOFLAVONE, Method: PREINCUBATION", "value": "inactive; negative"}]}
{"smiles": "CC(O)c1ccc2ccc3cccc4ccc1c2c34", "note": "(centres undefined)", "values": [{"measurement": "mutagenic call", "setting": "Test System: AMES SALMONELLA TYPHIMURIUM, Strain/Indicator: TA98, Metabolic Activation: HUMAN, LIVER, CYTOSOL, PAPS, Method: PREINCUBATION", "value": "active; positive"}]}
{"smiles": "Nc1ccc2snc(Cl)c2c1", "values": [{"measurement": "mutagenic call", "setting": "[4]", "value": "active; positive"}]}
{"smiles": "COC(=O)[C@H]1[C@H]2C[C@@H]3c4[nH]c5cc(OC)ccc5c4CCN3C[C@H]2C[C@@H](OC(=O)c2cc(OC)c(OC)c(OC)c2)[C@@H]1OC", "values": [{"measurement": "mutagenic call", "setting": "End Point: IN VITRO CHROMOSOMAL ABERRATIONS, Test System: CHO CELLS, Metabolic Activation: NONE", "value": "inactive; negative"}, {"measurement": "mutagenic call", "setting": "Test System: AMES SALMONELLA TYPHIMURIUM, Strain/Indicator: TA97, Metabolic Activation: HAMSTER, LIVER, S-9, AROCLOR 1254 (10 OR 30%), Method: PREINCUBATION", "value": "inactive; negative"}, {"measurement": "mutagenic call", "setting": "Test System: AMES SALMONELLA TYPHIMURIUM, Strain/Indicator: TA97, Metabolic Activation: NONE, Method: PREINCUBATION", "value": "inactive; negative"}, {"measurement": "mutagenic call", "setting": "Test System: AMES SALMONELLA TYPHIMURIUM, Strain/Indicator: TA97, Metabolic Activation: RAT, LIVER, S-9, AROCLOR 1254 (10 OR 30%), Method: PREINCUBATION", "value": "inactive; negative"}, {"measurement": "mutagenic call", "setting": "Test System: AMES SALMONELLA TYPHIMURIUM, Strain/Indicator: TA98, Metabolic Activation: HAMSTER, LIVER, S-9, AROCLOR 1254 (10 OR 30%), Method: PREINCUBATION", "value": "inactive; negative"}, {"measurement": "mutagenic call", "setting": "[1]", "value": "inactive; negative"}, {"measurement": "mutagenic call", "setting": "Test System: AMES SALMONELLA TYPHIMURIUM, Strain/Indicator: TA98, Metabolic Activation: NONE, Method: STANDARD PLATE", "value": "inactive; negative"}, {"measurement": "mutagenic call", "setting": "Test System: AMES SALMONELLA TYPHIMURIUM, Strain/Indicator: TA98, Metabolic Activation: RAT, LIVER, S-9, AROCLOR 1254 (10 OR 30%), Method: PREINCUBATION", "value": "inactive; negative"}, {"measurement": "mutagenic call", "setting": "Test System: AMES SALMONELLA TYPHIMURIUM, Strain/Indicator: TA98, Metabolic Activation: RAT, LIVER, S-9, AROCLOR 1254, Method: STANDARD PLATE", "value": "inactive; negative"}, {"measurement": "mutagenic call", "setting": "Test System: AMES SALMONELLA TYPHIMURIUM, Strain/Indicator: TA100, Metabolic Activation: HAMSTER, LIVER, S-9, AROCLOR 1254 (10 OR 30%), Method: PREINCUBATION", "value": "inactive; negative"}, {"measurement": "mutagenic call", "setting": "[2]", "value": "inactive; negative"}, {"measurement": "mutagenic call", "setting": "[4]", "value": "inactive; negative"}, {"measurement": "mutagenic call", "setting": "Test System: AMES SALMONELLA TYPHIMURIUM, Strain/Indicator: TA100, Metabolic Activation: RAT, LIVER, S-9, AROCLOR 1254 (10%), Method: PREINCUBATION", "value": "inactive; negative"}, {"measurement": "mutagenic call", "setting": "Test System: AMES SALMONELLA TYPHIMURIUM, Strain/Indicator: TA100, Metabolic Activation: RAT, LIVER, S-9, AROCLOR 1254 (30%), Method: PREINCUBATION", "value": "inactive; negative"}, {"measurement": "mutagenic call", "setting": "Test System: AMES SALMONELLA TYPHIMURIUM, Strain/Indicator: TA100, Metabolic Activation: RAT, LIVER, S-9, AROCLOR 1254, Method: STANDARD PLATE", "value": "inactive; negative"}, {"measurement": "mutagenic call", "setting": "Test System: AMES SALMONELLA TYPHIMURIUM, Strain/Indicator: TA1535, Metabolic Activation: HAMSTER, LIVER, S-9, AROCLOR 1254 (10 OR 30%), Method: PREINCUBATION", "value": "inactive; negative"}, {"measurement": "mutagenic call", "setting": "[3]", "value": "inactive; negative"}, {"measurement": "mutagenic call", "setting": "Test System: AMES SALMONELLA TYPHIMURIUM, Strain/Indicator: TA1535, Metabolic Activation: NONE, Method: STANDARD PLATE", "value": "inactive; negative"}, {"measurement": "mutagenic call", "setting": "Test System: AMES SALMONELLA TYPHIMURIUM, Strain/Indicator: TA1535, Metabolic Activation: RAT, LIVER, S-9, AROCLOR 1254 (10 OR 30%), Method: PREINCUBATION", "value": "inactive; negative"}, {"measurement": "mutagenic call", "setting": "Test System: AMES SALMONELLA TYPHIMURIUM, Strain/Indicator: TA1535, Metabolic Activation: RAT, LIVER, S-9, AROCLOR 1254, Method: STANDARD PLATE", "value": "inactive; negative"}, {"measurement": "mutagenic call", "setting": "Test System: AMES SALMONELLA TYPHIMURIUM, Strain/Indicator: TA1537, Metabolic Activation: NONE, Method: STANDARD PLATE", "value": "inactive; negative"}, {"measurement": "mutagenic call", "setting": "Test System: AMES SALMONELLA TYPHIMURIUM, Strain/Indicator: TA1537, Metabolic Activation: RAT, LIVER, S-9, AROCLOR 1254, Method: STANDARD PLATE", "value": "inactive; negative"}, {"measurement": "mutagenic call", "setting": "Test System: E. COLI, Strain/Indicator: WP2 UVRA, Metabolic Activation: HAMSTER, LIVER, S-9, AROCLOR 1254, Method: STANDARD PLATE", "value": "inactive; negative"}, {"measurement": "mutagenic call", "setting": "Test System: E. COLI, Strain/Indicator: WP2 UVRA, Metabolic Activation: HAMSTER, LIVER, S-9, Method: STANDARD PLATE", "value": "inactive; negative"}, {"measurement": "mutagenic call", "setting": "Test System: E. COLI, Strain/Indicator: WP2 UVRA, Metabolic Activation: MOUSE, LIVER, S-9, AROCLOR 1254, Method: STANDARD PLATE", "value": "inactive; negative"}, {"measurement": "mutagenic call", "setting": "Test System: E. COLI, Strain/Indicator: WP2 UVRA, Metabolic Activation: MOUSE, LIVER, S-9, Method: STANDARD PLATE", "value": "inactive; negative"}, {"measurement": "mutagenic call", "setting": "Test System: E. COLI, Strain/Indicator: WP2 UVRA, Metabolic Activation: NONE, Method: STANDARD PLATE", "value": "inactive; negative"}, {"measurement": "mutagenic call", "setting": "Test System: E. COLI, Strain/Indicator: WP2 UVRA, Metabolic Activation: RAT, LIVER, S-9, AROCLOR 1254, Method: STANDARD PLATE", "value": "inactive; negative"}, {"measurement": "mutagenic call", "setting": "Test System: E. COLI, Strain/Indicator: WP2 UVRA, Metabolic Activation: RAT, LIVER, S-9, Method: STANDARD PLATE", "value": "inactive; negative"}, {"measurement": "mutagenic call", "setting": "Test System: UDS RAT HEPATOCYTES, Strain/Indicator: BROMODEOXYURIDINE INCORP, Metabolic Activation: NONE, Method: FLOW CYTOMETRIC ANALYSIS", "value": "inactive; negative"}]}
